{"source": "patent US20160090351A1", "about": "“INHIBITORS OF DEUBIQUITINATING PROTEASES” (BRANDEIS UNIVERSITY, priority 2013, published 2016)", "key": {"USP9x": {"molecular_target": "T1, USP9x (Homo sapiens, UniProt Q93008)", "T1 construct": "endogenous in cells; host or cells: K562 cell lysate", "assay": "HA-Ub-VS labeling in K562 cell lysates", "format": "biochemical", "description": "HA-Ub-VS is commonly used to label DUBs in cell lysates. […] A. and B. K562 cell lysates were treated with compound for 40 minutes prior to activity labeling with HA-Ub-VS (1.5 μM) for 20 minutes. Samples were analyzed by SDS-PAGE and immunoblotting with anti-HA antibody. C. […] Values were derived by fitting to the in Prism."}, "20S proteasome": {"molecular_target": "20S proteasome (Homo sapiens, UniProt P28074)", "assay": "proteasome activity (purified 20S proteasome; GFP-Ub (G76V) in Cos-1 cells)", "format": "biochemical", "conditions": "20S proteasome 30 minutes, Suc-Leu-Tyr-AMC 100 μM; Cos-1 GFP-Ub (G76V) 8 hours", "description": "A. Purified 20S proteasome was treated with compound for 30 minutes prior to addition of substrate (Suc-Leu-Tyr-AMC, 100 μM). B. Cos-1 cells expressing with GFP-Ub (G76V) were treated with compound for 8 hours, then the level of GFP was measured by flow cytometry."}, "BaF3.p210": {"tested_on": "BaF3.p210", "assay": "cytotoxicity in a panel of cell lines, Alamar Blue", "format": "cell-based, mouse", "description": "Cytoxicity was tested against a panel of cell lines: (i) B16/F10, a metastatic mouse melanoma cell line that suppresses the tumor suppressor Gas1 (Growth arrest-specific 1); (ii) BaF3, an immortalized mouse pro-B cell line that depends on IL-3 for growth and proliferation (L-3 stimulates expression of the pro-survival Bc1-2 family member, Mc1-1; and USP9x is the deubiquitinase responsible for stabilizing Mc1-1); (iii) Cos-1, monkey kidney fibroblast immortalized with SV40 T antigen; (iv) BaF3.p210, BaF3 cells expressing Bcr-Abl kinase (p210), the mutant protein that causes chronic myelogenous leukemia, and the target of Gleevec (The expression of Bcr-Abl cause proliferation to become IL-3-independent. These cells have been widely used in the development of Bcr-Abl kinase inhibitors. USP9x stabilizes Bcr-Abl by removing Ub and blocking degradation via autophagy.); (v) HEK293T, human embryonic kidney cell line expressing SV40 T antigen; (vi) HeLa, human cervical adenocarcinoma cell line; (vii) MCF7, human breast cancer cell line; and (viii) NIH3T3, mouse fibroblast cell line. Of these, the only cells dependent on USP9x for survival are BaF3.p210 and BaF3. A. Cells were treated with a single dose of TU50 for 48 h and viable cells were measured using Alamar Blue®. EC50=8±2 μM for BaF3.p210. B. As above, except that cells were treated with TU50 for 72 h."}, "K562 cells": {"tested_on": "K562 cells", "assay": "apoptosis, cell cycle and viability of K562 cells by flow cytometry", "format": "cell-based, human", "conditions": "annexin V-FITC / propidium iodide, 24 hours (TU50 also 8 hours)", "description": "(§1) K562 cells are from a myelogenous leukemia line that expresses Bcr-Abl kinase. A. K562 cells were treated with TU50 for 24 hours after which time the cells were treated with annexin V-FITC and propidium iodide. Cells were then analyzed by flow cytometry. Cells showing only annexin V-FITC were considered apoptotic whereas cells showing both annexin V-FITC and propidium iodide were considered necrotic. N=2. All points show a significant difference to the vehicle (DMSO) with p<0.05. […] All points show a significant difference to vehicle (DMSO) with p<0.02. C. Same as A, but the incubation period was 8 hours. N>2. All points show a significant difference to DMSO with p<0.02. D, K562 cells were treated with TU50 for 4 hours. Samples were analyzed by SDS-PAGE and immunoblotting with anti-Bcr-Abl antibody. E. Quantitation of blot in D. The signal for tubulin was used to normalize the Bcr-Abl signal. N=3.\n(§2) FIG. 40 depicts data showing that diphenyl carbonates induce the degradation of Bcr-Abl kinase. A. K562 cells were treated with C17 for 24 h (1 dose) then analyzed for Bcr-Abl expression by western blot with anti-Abl antibody. B. Quantitation of blots in A normalized to actin. C. K562 cells were treated with C17 for 24 h then the amount of cells in G1 and apoptosis were recorded (N=3). D. K562 were treated with C15 for 4 h then analyzed for Bcr-Abl expression using western blot. E. Quantitation of Bcr-Abl from D normalized to tubulin (N=4). F. Same K562 lysates were separately analyzed for K63-linked ubiquitin. G. Quantitation of blots in F (N=4). Differences between all bars is significant p<0.01). H. K562 cells were treated with C15 for 24 h after which time cells were fixed in ethanol, treated with propodium iodide/RNAse then analyzed by FACS. Viability was calculated using forward and side scatter. I. Same experiment as H but red fluorescence was measured to determine DNA content"}, "Bcr-Abl kinase": {"tested_on": "Bcr-Abl kinase", "assay": "Bcr-Abl levels in K562 cells by immunoblotting", "format": "cell-based, human", "description": "as §1\n(§3) FIG. 34 depicts data showing that diphenylcarbonates cause the accumulation of HMW-Ub and reduce the levels of Bcr-Abl in K562 cells. A. K562 cells were treated with diphenyl carbonates (50 μM) for 2 h and then assayed for the accumulation of K48-linked Ub. B. As in A, but Bcr-Abl was measured by immunoblotting with anti-Abl antibodies. C. K562 cells were treated with C17 (50 μM) in the presence and absence of bortezomib (6 μM) for 4 hours and Bcr-Abl was measured by immunblotting with anti-Abl antibodies. D. Quantitation of blot in C. Significance: DMSO relative to C17 and bortezomib p=0.002; DMSO relative to C17, p=0.03. E. K562 cells were treated with C15 for 4 hours then analyzed for SMAD4 monoubiquitination by western blot. F. Quantitation of blots in A. (N=3). See also FIG. 40.\nas §2\n(§4) Transfected cells were harvested 1.5 days post transfection. […] Typically clarified lysate was analyzed."}, "cathepsin C": {"molecular_target": "cathepsin C (Homo sapiens, UniProt P53634)", "sequence (P53634 25-463, species assumed)": "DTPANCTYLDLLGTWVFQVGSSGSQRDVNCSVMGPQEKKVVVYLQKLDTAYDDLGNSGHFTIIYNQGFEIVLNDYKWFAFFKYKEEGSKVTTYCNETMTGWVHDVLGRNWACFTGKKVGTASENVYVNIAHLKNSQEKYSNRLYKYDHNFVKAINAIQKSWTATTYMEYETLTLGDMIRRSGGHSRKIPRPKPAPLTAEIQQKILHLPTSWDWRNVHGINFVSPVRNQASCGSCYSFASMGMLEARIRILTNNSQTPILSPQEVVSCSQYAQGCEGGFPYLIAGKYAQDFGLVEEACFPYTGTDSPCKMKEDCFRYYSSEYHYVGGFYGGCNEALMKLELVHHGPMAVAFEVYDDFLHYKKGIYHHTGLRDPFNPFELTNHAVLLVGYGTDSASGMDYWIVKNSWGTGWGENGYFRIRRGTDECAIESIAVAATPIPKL", "assay": "cathepsin C inhibition", "format": "biochemical", "conditions": "compounds numbered as in FIG. 5"}, "[1]": {"tested_on": "USP9x, USP19, USP7/8, USP28/15", "assay": "HA-Ub-VS activity profiling in cell lysates, USPs", "format": "biochemical, human", "conditions": "HEK293T or Cos-1 lysate, compounds numbered as in FIG. 3", "description": "(§5) HA-ubiquitin vinylsulfone (HA-Ub-VS) irreversibly labels DUBs by modifying the catalytic cysteine residue Inhibition of the DUB prevents HA-Ub-VS labeling and the band is. […] The interaction with UCHL1/3 is reversible.\n(§6) Lysate labeling assay on untransfected cells (1.5 mg/mL) was run with the stated concentration of inhibitor (or 1% DMSO control) for between 19-60 mins. After this time HA-Ub-VS (1.5-0.7 μM) was added and incubated for 19 mins. After this time reaction mixture (9 μL) was removed and quenched in 2× (final concentration) reducing loading buffer. For recovery experiments, a lysate of 6 mg/mL was treated with saturating compound C14 (250 μM) and incubated for 40 mins. Afterward, the lysate was diluted to 0.6 mg/mL (final concentration of inhibitor 25 μM) in lysis buffer (final volume 100 μL), then HA-Ub-VS was added. Aliquots (15 μL) were removed at the stated time (5-119 mins) and immediately quenched in 2× (final concentration) reducing loading buffer. For all HA-Ub-VS experiments samples in loading buffer were heated only to 37° C. prior to loading on a gel. This assay is highly susceptible to concentration of lysate and HA-Ub-VS. Cell experiments were carried out as above with some modifications. For Cos-1 and MCF-7 cells, after trypsinization, media with compound was added to give a final concentration of compound equal to that used in the assay. Cell pellets were lysed on an ice/salt bath with a temperature of −5° C. and lysate was centrifuged for only 5 mins.\n(§7) HA-Ub-VS is an irreversible inhibitor of DUBs that is widely used in activity profiling. If the DUB inhibitors react to form a thiocarbonylated enzyme as proposed (FIG. 29B), then HA-Ub-VS labeling will be blocked. Treatment of HEK 293T lysates with HA-Ub-VS produced the characteristic pattern of protein bands at 250, 150-100, 45, 38 and 36 kDa, generally ascribed to USP9x (292 kDa), USP19 (146 kDa), USP7/8 (128 and 127 kDa, respectively), USP28/15 (122 and 112 kDa, respectively), UCH-L5 (38 kDa), UCH-L3 (26 kDa) and UCH-L1 (25 kDa) as depicted in FIG. 31.\n(§8) The effect of diphenylcarbonates on HA-Ub-VS labeling was assessed to investigate the selectivity of DUB inhibition. Lysates were preincubated with diphenyl carbonates (75 μM), then treated with HA-Ub-VS (FIG. 31A). […] These C17 and C22-sensitive DUBs are most likely USP9x, USP19, USP7/8 and UCHL5, based on molecular weight (FIGS. 31B and 38). The identity of USP7 was confirmed by immunoblotting (FIG. 38F). […] Similar behavior was observed on Cos-1 cell lysates (FIG. 38B)."}, "UCH-L5, UCH-L3, UCH-L1": {"tested_on": "UCH-L5, UCH-L3, UCH-L1", "assay": "HA-Ub-VS activity profiling in cell lysates, UCH-Ls", "format": "biochemical, human", "conditions": "HEK293T or Cos-1 lysate, compounds numbered as in FIG. 3", "description": "as §5, §6, §7, §8"}, "MCF7 cells": {"tested_on": "MCF7 cells", "assay": "accumulation of K48- and K63-linked ubiquitin in MCF7 cells", "format": "cell-based, human", "conditions": "100 μM", "description": "FIG. 41 depicts data showing that compound C17 and C15 increase P53 expression and upregulate K48-linked Ub in MCF7 cells. A. MCF7 cells were treated with C17 (50 μM) for 48 h, dosed every 24 h and samples were analyzed for K48-linked ubiquitin. Note that samples were not sonicated, so only soluble HMW-Ub is recovered. B. A similar experiment to A but samples were analyzed for p53. C. Quantitation of blots in B. Each point has a P<0.001 for an increase relative to the DMSO vehicle (N=2). D. MCF7 cells were treated with C15 (100 μM) dosing every 2 h. The accumulation of K48-linked ubiquitin was assayed by SDS-PAGE and by western blot. E. MCF7 cells were treated as in D but the accumulation of K63-linked ubiquitin was assayed. F. Cos-1 cells were treated with C15 for 2 hours then analyzed for K48-linked ubiquitin by western blot. G. Similar experiment to F, but K63-linked ubiquitin was assayed. H. Quantitation of blots in G (N=3).\nSimilar results were obtained in Cos-1, CHO and HEK293T.\nas §4"}, "SMAD4": {"tested_on": "SMAD4", "assay": "SMAD4 monoubiquitination in K562 cells by western blot", "format": "cell-based, human", "description": "as §3, §4"}, "[2]": {"tested_on": "caspases or the proteasome", "assay": "effect on caspases or proteasome (PARP cleavage), Example 5", "format": "cell-based", "conditions": "100 μM", "description": "(§9) Cells treated with 4 (100 μM; as defined in FIG. 3) show PARP cleavage that indicates caspases are active. The fluorescence of G76V ubiquitin-GFP fusion protein increases in the presence of inhibitor 4 (as defined in FIG. 3), as expected if degradation […] due to inhibition of DUBs. In contrast, GFP fluorescence […] when the proteasome is inhibited by bortezomib."}, "[3]": {"tested_on": "G76V ubiquitin-GFP fusion protein", "assay": "G76V ubiquitin-GFP fusion protein fluorescence, Example 5", "format": "cell-based", "conditions": "Example 5, FIG. 9 bottom panel", "description": "as §9"}, "USP7": {"tested_on": "USP7", "assay": "MDM2 and P53 levels in treated cells, Example 6", "format": "cell-based", "conditions": "compound numbered as in FIG. 3", "description": "P53 is a tumor suppressor that is rapidly degraded in tumor cells due to ubiquitination by MDM2. In turn, MDM2 is degraded by the ubiquitin/proteasome system. USP7 removes ubiquitin from MDM2, stabilizing the protein, and thereby causing degradation of P53. […] This behavior is observed when cells are treated with 4 (as defined in FIG. 3). Doxorubicin (Doxo) serves as a positive control."}}, "data": [{"smiles": "CC(C)(C)OC(=O)NCc1cccc(N=C=S)c1", "note": "[TU50]", "values": [{"measurement": "selectivity of DUB inhibition", "setting": "USP9x; HA-Ub-VS labeling", "value": "selectively inhibits USP9x"}, {"measurement": "EC50", "setting": "USP9x; compound 40 minutes, then HA-Ub-VS (1.5 μM) 20 minutes", "value": "3 ± 3", "unit": "µM"}, {"measurement": "effect on proteasome activity", "setting": "20S proteasome", "value": "no effect on proteasome activity"}, {"measurement": "EC50", "setting": "BaF3.p210; BaF3.p210, single dose, 48 h, Alamar Blue, read-out: EC50, viable cells", "value": "8 ± 2", "unit": "µM"}, {"measurement": "selectivity of proliferation inhibition over cell panel", "setting": "BaF3.p210; panel of 8 cell lines, 48 h and 72 h", "value": "selectively inhibits proliferation of cells that depend on USP9x"}, {"measurement": "apoptosis of K562 cells", "setting": "K562 cells", "value": "induce apoptosis of K562 cells"}, {"measurement": "Bcr-Abl kinase level", "setting": "Bcr-Abl kinase; TU50 4 hours", "value": "cause degradation of Bcr-Abl kinase"}]}, {"smiles": "CC(C)(C)OC(=O)NCc1ccc(OC(=O)Oc2ccccc2)cc1", "note": "[compound 14]", "values": [{"measurement": "inhibition of cathepsin C", "setting": "cathepsin C", "value": "inhibits cathepsin C"}]}, {"smiles": "Cl.NCc1ccc(OC(=O)Oc2ccc(Br)cc2)cc1", "note": "[compound 4]", "values": [{"measurement": "HA-Ub-VS binding to USP9x and USP7", "setting": "[1]", "value": "prevents binding of HA-Ub-VS to USP9x (290 kDa) and USP7 (150 kDa) selectively"}, {"measurement": "inhibition of UCHL1/3", "setting": "UCH-L5, UCH-L3, UCH-L1", "value": "At higher concentrations UCHL1/3 (37 kDa) are inhibited"}, {"measurement": "BCR/Abl level", "setting": "Bcr-Abl kinase; compound numbered as in FIG. 3", "value": "decrease in BCR/Abl"}, {"measurement": "K48- and K63-linked ubiquitin", "setting": "MCF7 cells", "value": "elevated K48- and K63-linked ubiquitin"}, {"measurement": "SMAD4 monoubiquitination", "setting": "SMAD4", "value": "increase in SMAD4 monoubiquitination"}, {"measurement": "inhibition of caspases or the proteasome", "setting": "[2]", "value": "does not inhibit caspases or the proteasome"}, {"measurement": "GFP fluorescence of G76V ubiquitin-GFP", "setting": "[3]", "value": "increases"}, {"measurement": "MDM2 and P53 levels", "setting": "USP7", "value": "degradation of MDM2 and the stabilization of P53"}]}]}
